“Also recorded” adds a separate entry of the source.
Columns and labels:
[1] = tested on: CAMBIA 1302 plasmid; experiment: DNA binding by agarose gel electrophoresis (gel mobility); settings: 50 ng plasmid, 100-300 ng fullerene compound, preincubated 15-30 minutes
Protocol: Each tube was allowed to bind for 15-30 minutes and then place on an agarose gel. […] After running the gel, the bands were visualized using post-staining with commercial SBER SAFE™ 10000× stain.
DNA binding was measured at different fullerene nanoparticle/DNA ratios. The DNA-binding ability of the fullerene test compounds 1, 2, 4, and 6 was examined by direct DNA binding and agarose gel electrophoresis. […] In each case, 50 ng plasmid DNA was preincubated for 30 minutes with 100-300 nG fullerene compound (FIG. 8). The DNA binding titration of plasmid pCAMBIA 1302 with compound 6 was carried with 50 nG pCAMBIA 1302 and various concentrations (93-3000 nG per 10 microL). Results shown in FIG. 8 indicate optimal binding at a concentration of ˜5-6 equivalents fullerene per DNA. FIG. 8 Lane 1: 50 ng of DNA Plasmid DNA only, Lane 2: 50 ng of DNA Plasmid DNA+3000 ng compound 6 (50 equiv), Lane 3: 50 ng of DNA Plasmid DNA+1500 ng compound 6 (25 equiv), Lane 4: 50 ng of DNA Plasmid DNA+750 ng compound 6 (12 equiv), Lane 5: 50 ng of DNA Plasmid DNA+375 ng compound 6 (6 equiv), Lane 6: 50 ng of DNA Plasmid DNA+187 ng compound 6 (3 equiv), Lane 7: 50 ng of DNA Plasmid DNA+93 ng compound 6 (1.5 equiv). Compound 6 stock solution (0.3 mg/mL) was diluted with TE buffer and 10 microL each fullerene dilution was reincubated with plasmid for […] to loading on the gel.

[2] = tested on: tobacco protoplast cells; experiment: Fullerene-enhanced electroporation, GFP expression; format: cell-based, Nicotiana tabacum; settings: tobacco protoplasts, GFP DNA, fluorescence microscope; without fullerene no GFP expression
Protocol: One embodiment of the invention is called fullerene-enhanced electroporation. The method comprises (1) mixing fullerene derivative solution with the DNA of interest, (2) addition of fullerene derivative/DNA solution to plant cells or plant protoplasts, and (3) treatment of the mixture in a Gene Pulser cuvette or similar electroporation apparatus for a few minutes. Suspension was then incubated for 2-3 hours or overnight to allow DNA transfer and gene expression to take place. […] On the left is the light microscope picture showing tobacco protoplast cells after electroporation. […] Experiments to test the fullerene nanoparticles for transformation ability used tobacco protoplasts for transient assays. Sterile suspension cultures (5% w/v) of tobacco (Nicotiana tabacum) were grown in MS basal salts media. Suspension cells were incubated in enzyme solution (0.6 M mannitol, 10 mM MES, 1% Cellulase, 0.2% pectinase) at pH 5.7 in the dark, at 24° C. overnight. After incubation, protoplasts were passed through […] nylon mesh, washed and protoplasts pelleted by centrifugation. Protoplasts were resuspended in the appropriate media required for transformation studies. Electroporation is the process where cells are mixed with a DNA construct and then briefly exposed to pulses of high voltage. […]

[3] = tested on: peanut; settings: increased from 3.9% with no antioxidant; cited from earlier work

Compound | DNA binding (change in gel mobility) [1] | GFP expression after electroporation [2] | Transformation frequencies [3] [%]
FC4S [Compound 2] | no DNA binding effect; also recorded: no binding to DNA | – | –
polyhydroxy-C60 [Compound 1] | no DNA binding effect; also recorded: no binding to DNA | gene insertion and GFP expression | –
N[C@@H](CCC(=O)N[C@@H](CS)C(=O)NCC(=O)O)C(=O)O [glutathione] | – | – | 14.6
tocopherol | – | – | 10.3
O=[Se](O)O [selenite] | – | – | 12.4

— patent publication US8614366B2, “Methods for genetic plant transformation using water-soluble fullerene derivatives” (priority 2009, dated 2013)
